Several values for one entry are separate records, joined by “and”; a condition that tells them apart may be missing. Equal values may be shown once. Entries after “also recorded” stand apart in the source; their conditions may differ.
What was measured:
[1] = Plasma potassium levels in sheep of the MCC study; settings: at effective / approximate ED50 doses
Experimental: In these studies, adult sheep were restrained and nasally intubated with an endotracheal tube. Aerosolized test articles were administered over 10^−15 minutes to sheep. Radiolabeled ^99mTc-sulfur colloid (TSC, 3.1 mg/mL; containing approximately 20 mCi) was then administered at a specified time four or eight hours after test article. The radiolabeled aerosol was administered through the endotracheal tube for about 5 minutes. The sheep were then extubated, and total radioactive counts in the lung were measured every 5 minutes for a 1-hour observation period. The rate of radiolabel clearance from the lung is representative of the MCC rate in the animal. […] The model also allows for the collection of simultaneous PK/PD information through plasma and urine sampling over the test period.

[2] = sheep, in vivo, iv
[3] = system: mucociliary clearance (MCC); assay: Mucociliary clearance (MCC) studies in sheep; assay type: in vivo; settings: for AUC / Initial Slope (4.0-4.5 h): Table 10, 4 mL, 4 h post-dose
Experimental: Assay 2. Mucociliary Clearance (MCC) Studies in Sheep
The animal model that has been used most often to measure changes in MCC is the sheep model.
In these studies, adult sheep were restrained and nasally intubated with an endotracheal tube. Aerosolized test articles were administered over 10^−15 minutes to sheep. Radiolabeled ^99mTc-sulfur colloid (TSC, 3.1 mg/mL; containing approximately 20 mCi) was then administered at a specified time four or eight hours after test article. The radiolabeled aerosol was administered through the endotracheal tube for about 5 minutes. The sheep were then extubated, and total radioactive counts in the lung were measured every 5 minutes for a 1-hour observation period. The rate of radiolabel clearance from the lung is representative of the MCC rate in the animal. The advantage of this system is that it closely simulates the human lung environment. The model also allows for the collection of simultaneous PK/PD information through plasma and urine sampling over the test period. There are also several techniques to measure the drug concentrations on the airway surface during the MCC measurements. These include the collection of exhaled breath condensates or a filter paper method to obtain ASL via bronchoscopy.
Test solutions were aerosolized using a Raindrop nebulizer at a flowrate of eight liters per minute and connected to a dosimetry system consisting of a solenoid valve and a source of compressed air (20 psi). […] Using a Raindrop nebulizer, radiolabeled TSC was administered over approximately 3 minutes either 4 or 8 hours after drug treatment to evaluate efficacy/durability. Radioactive counts were measured in a central region in the right lung at 5 min intervals for one hour with a gamma camera.

[4] = Human plasma metabolism; assay type: in vitro ADME; settings: read-out: Human Plasma Metabolism (t½)
[5] = Human plasma protein binding; assay type: in vitro ADME
[6] = system: HBE cells; assay: Airway surface liquid drug clearance and metabolism by human airway epithelium; settings: 25 μL of 25 μM on apical surface of HBE, 37° C.
From the text: Assay 3. d. Airway Surface Liquid Drug (ASL) Clearance and Metabolism by Human Airway Epithelium

[7] = Log D; assay type: physicochemical
[8] = system: CBE cells; assay: Airway hydration / surface liquid retention (in vitro CBE model); assay type: cell-based, canine; settings: 10 μM, 50 μL applied apically, 8 hours
Experimental: Primary CBE cells are plated onto collagen-coated, porous membranes maintained at an air-liquid interface to assess maintenance of surface liquid volume over time. At the start of the experiment, each 12 mm snapwell insert was removed from the plate containing air-liquid interface culture media, blotted dry, weighed, and 50 μL of vehicle (0.1% DMSO), or ENaC blocker (10 μM in 0.1% DMSO) applied to the apical surface and the mass was recorded. The inserts were immediately returned to a transwell plate (500 μL, Krebs Ringer Bicarbonate (KRB), pH 7.4 in lower chamber) and placed in a 37° C., 5% CO2 incubator. To reduce artifact due to an apical carbohydrate osmotic gradient upon water loss, glucose was not included in the apical buffer. […] The mass of surface liquid was converted to volume in μL. Data are reported as % initial volume (100%=50 μL).
The duration of sodium transport inhibition was determined indirectly by measuring the buffer retained after a 50 μl volume of experimental buffer was added to the apical surface of CBE cells.

[9] = sheep MCC model, given as concentration

N=C(NCCCCc1ccc(OCCN(C[C@H](O)[C@@H](O)[C@H](O)[C@H](O)CO)C[C@H](O)[C@@H](O)[C@H](O)[C@H](O)CO)cc1)NC(=O)c1nc(Cl)c(N)nc1N [Comparative Example 1]
effect on plasma potassium [1]: causes a rise in plasma potassium | dose recovered in urine [2]: 43% | ED50 ([3]; Ovis aries, sheep MCC at 8 hrs, read-out: Approximate ED50): ~0.24 µmol/kg | AUC, % of maximal effect ([3]; Table 7, 3000 μM, 8 hrs): (47%) | AUC, change from vehicle ([3]; Table 7, 3000 μM, 8 hrs): 2.9 % CI*h | Max Clearance, % of maximal effect ([3]; Table 7, 3000 μM, 8 hrs): (31%) | Max Clearance, change from vehicle ([3]; Table 7, 3000 μM, 8 hrs): 4% | Slope (8-8.5 h), % of maximal effect ([3]; Table 7, 3000 μM, 8 hrs): (60%) | Slope (8-8.5 h), change from vehicle ([3]; Table 7, 3000 μM, 8 hrs): 6.1 | Approximate ED50 ([3]; sheep MCC at 8 hrs, listed as Comp. Ex. 1): ~240 nmol/kg | ED50 (AUC=47%) [3, 9]: approximately 3000 μM | approximate ED50 dose [3, 9]: ~3000 µM

N=C(NCCCCc1ccc(OC[C@H](N)C(N)=O)cc1)NC(=O)c1nc(Cl)c(N)nc1N [Comparative Example 4, (S)-3,5-diamino-6-chloro-N-(N-(4-(4-(2,3-diamino-3-oxopropoxy)phenyl)butyl)carbamimidoyl)pyrazine-2-carboxamide]
effect on plasma potassium [1]: has elevations of plasma K; also recorded: significant increase in plasma potassium levels | half-life [4]: 37 min | fraction unbound [5]: 0.24 | % of Apical Mass as Metabolites (2 h) [6]: 83% and 83.0 ± 3.5% | % on Basolateral Side as Metabolites (2 h) [6]: 94.7 ± 1.0% | logD [7]: 0.64 | AUC ([3]; 11.2 μg/kg): 6.9 ± 1.0 % CI × h | Initial Slope (4.0-4.5 h) ([3]; 11.2 μg/kg): 14.5 ± 1.3 | AUC ([3]; 112 μg/kg): 14.1 ± 2.2 % CI × h | Initial Slope (4.0-4.5 h) ([3]; 112 μg/kg): 32.2 ± 7.3 | approximate ED50 dose [3, 9]: ~3000 µM

N=C(N)NC(=O)c1nc(Cl)c(N)nc1N [Amiloride, amiloride]
surface liquid retained (% initial volume) [8]: 25±19.2%

Source: patent publication US11578042B2, “3,5-diamino-6-chloro-N-(N-(4-(4-(2-(hexyl(2,3,4,5,6-pentahydroxyhexyl)amino)ethoxy)phenyl)butyl)carbamimidoyl)pyrazine-2-carboxamide” (Parion Sciences, Inc., priority 2011, dated 2023)
